Test results taken from article PMC6099623, “Novel Thiazolidinone/Thiazolo[3,2-a]Benzimidazolone-Isatin Conjugates as Apoptotic Anti-proliferative Agents Towards Breast Cancer: One-Pot Synthesis and In Vitro Biological Evaluation” (Molecules : A Journal of Synthetic Chemistry and Natural …, 2018).

Key:
[1] = tested on: MCF-7 breast cancer cell line; assay: Crystal Violet antiproliferative assay, MCF-7; type: cell-based; settings: Homo sapiens, MCF7, 48 h, Crystal Violet assay; 48 h of incubation; mean ± S.D. of three separate experiments
Description: (§1) The in vitro antiproliferative activity of the newly synthesized conjugates 4a–n and 7a–d was evaluated against breast cancer MDA-MB-231 and MCF-7 cell lines, following the Crystal Violet (CV) cell cytotoxicity assay. Doxorubicin was included in this assay as a positive control, and Sunitinib was used as a reference drug.
(§2) Breast cancer cell lines MDA-MB-231 and MCF-7 cells were obtained from VACSERA Tissue Culture Unit. The cells were propagated in DMEM supplemented with 10% heat-inactivated fetal bovine serum, 1% L-glutamine (2.5 mM), HEPES (4-(2-hydroxyethyl)-1-piperazineethanesulfonic acid) buffer (10 mM) and 50 µg/mL gentamycin. All cells were maintained at 37 °C in a humidified atmosphere with 5% CO2 and were sub-cultured two times a week. Cytotoxicity was determined following the Crystal Violet (CV) cell cytotoxicity assay.
(§3) Test samples were dissolved in DMSO and kept at a stock concentration of 100 mM. Exponentially growing cells were collected using 0.25% Trypsin-EDTA and seeding was done at a density of 3000 cells/well in 96-well plates. After 24 h, the monolayer cultured cells were washed with sterile phosphate buffered saline (0.01 M pH 7.2) and simultaneously the cells were treated with […] from 10 different dilutions of the test compounds as well as Doxorubicin was […] Control wells were exposed to the same concentration of vehicle, DMSO (1%) used in the highest concentration of the test samples. Cell viability was >99% compared to untreated cells. The number of the surviving cells was determined by staining the cells with crystal violet followed by cell lysing using 33% glacial acetic acid. The absorbance was measured at 490 nm using ELISA reader (Thermo Fisher Scientific, Waltham, MA, USA) after gentle shaking. The absorbance values from untreated cells were considered as 100% proliferation.
(§4) The number of viable cells was determined using ELISA reader as previously mentioned and the percentage of viability was calculated as […] where ODt is the mean optical density of wells treated with the test sample and ODc is the mean optical density of untreated cells. The 50% inhibitory concentration (IC50) was estimated from graphic plots of the dose response curve for each conc. using GraphPad Prism software, Version 5 (San Diego, CA, USA). The data presented are the mean of at least three separate experiments.

[2] = tested on: MDA-MB-231 breast cancer cell line; assay: Crystal Violet antiproliferative assay, MDA-MB-231; type: cell-based; settings: 48 h of incubation, mean ± S.D. of three separate experiments
Description: as §1, §2, §3, §4

[3] = tested on: lung fibroblast cell line (WI-38); assay: Crystal violet cytotoxicity towards nontumorigenic WI-38; type: cell-based; settings: Homo sapiens, nontumorigenic cells, mean ± S.D. of three separate experiments
Description: (§5) The cytotoxic activity of the active conjugates towards MDA-MB-231 cells (4c–e, 4g, 4l–n and 7a–d) was examined against nontumorigenic human lung fibroblast cell line (WI-38) and human breast epithelial cell line (MCF-10A) to investigate the potential safety of the newly prepared conjugates towards the normal cells. […] The results were expressed as IC50 values, and selectivity index was calculated (Table 2).
(§6) The cytotoxic activity of the active conjugates towards nontumorigenic human lung fibroblast cell line (WI-38) and human breast epithelial cell line (MCF-10A) was determined using Crystal violet (CV) cell cytotoxicity assay according to the previously published procedures.

[4] = tested on: breast epithelial cell line (MCF-10A); assay: Crystal violet cytotoxicity towards nontumorigenic MCF-10A; type: cell-based, human; settings: for IC50: Homo sapiens, MCF-10A, nontumorigenic cells, mean ± S.D. of three separate experiments; for Selectivity Index (MCF-10A/MDA-MB-231): ratio of IC50 MCF-10A to IC50 MDA-MB-231
Description: as §5, §6

SMILES | IC50 [1] | IC50 [2] | IC50 ([2]; Homo sapiens, MDA-MB-231, 48 h) | melting point | IC50 [3] | IC50 [4] | Selectivity Index (MCF-10A/MDA-MB-231) [4]
Cc1ccc2c(c1)C(=C1SC(=Nc3ccccc3)N(c3ccccc3)C1=O)C(=O)N2 [Compound 4f, 5-(5-Methyl-2-oxoindolin-3-ylidene)-3-phenyl-2-(phenylimino)thiazolidin-4-one] | 22.8 ± 2 µM |  | 60.9 ± 4.2 µM |  |  |  | 
O=C1Nc2ccc(F)cc2C1=C1SC(=Nc2ccccc2)N(c2ccccc2)C1=O [Compound 4b, 5-(5-Fluoro-2-oxoindolin-3-ylidene)-3-phenyl-2-(phenylimino)thiazolidin-4-one] | 58.5 ± 3.2 µM |  | 108 ± 8.2 µM | > 300 °C |  |  | 
Cc1ccc(N=C2SC(=C3C(=O)Nc4ccccc43)C(=O)N2c2ccc(C)cc2)cc1 [Compound 4h, 5-(2-Oxoindolin-3-ylidene)-3-(p-tolyl)-2-(p-tolylimino)thiazolidin-4-one] | 56 ± 3.7 µM |  | 51.7 ± 2.1 µM | > 300 °C |  |  | 
Cc1ccc(N=C2SC(=C3C(=O)Nc4ccc(Br)cc43)C(=O)N2c2ccc(C)cc2)cc1 [Compound 4k, 5-(5-Bromo-2-oxoindolin-3-ylidene)-3-(p-tolyl)-2-(p-tolylimino)thiazolidin-4-one] | > 200 µM |  | > 200 µM | > 300 °C |  |  | 
O=C1Nc2ccccc2C1=C1SC(=Nc2ccccc2)N(c2ccccc2)C1=O [Compound 4a, 5-(2-Oxoindolin-3-ylidene)-3-phenyl-2-(phenylimino)thiazolidin-4-one] | > 200 µM |  | > 200 µM |  |  |  | 
Cc1ccc(N=C2SC(=C3C(=O)Nc4ccc(F)cc43)C(=O)N2c2ccc(C)cc2)cc1 [Compound 4i, 5-(5-Fluoro-2-oxoindolin-3-ylidene)-3-(p-tolyl)-2-(p-tolylimino)thiazolidin-4-one] | 105 ± 7.5 µM |  | 152 ± 11.5 µM | > 300 °C |  |  | 
Cc1ccc(N=C2SC(=C3C(=O)Nc4ccc(Cl)cc43)C(=O)N2c2ccc(C)cc2)cc1 [Compound 4j, 5-(5-Chloro-2-oxoindolin-3-ylidene)-3-(p-tolyl)-2-(p-tolylimino)thiazolidin-4-one] | > 200 µM |  | 50.8 ± 3.5 µM | > 300 °C |  |  | 

Stronger by IC50 ([2]; Homo sapiens, MDA-MB-231, 48 h), values ahead:

IC50 [1] | IC50 [2] | IC50 ([2]; Homo sapiens, MDA-MB-231, 48 h) | melting point | SMILES | IC50 [3] | IC50 [4] | Selectivity Index (MCF-10A/MDA-MB-231) [4]
53.5 ± 3.6 µM | 47.2 ± 4.1 µM | 47.1 ± 4.1 µM | > 300 °C | COc1ccc2c(c1)C(=C1SC(=Nc3ccc(C)cc3)N(c3ccc(C)cc3)C1=O)C(=O)N2 [Compound 4l, 5-(5-Methoxy-2-oxoindolin-3-ylidene)-3-(p-tolyl)-2-(p-tolylimino)thiazolidin-4-one] | 176 ± 11.3 µM | 157 ± 6.8 µM | 3.3
27.6 ± 2.4 µM |  | 23.5 ± 1 µM | > 300 °C | Cc1cc(C)c2c(c1)C(=c1sc3nc4ccccc4n3c1=O)C(=O)N2 [Compound 7d, 2-(5,7-Dimethyl-2-oxoindolin-3-ylidene)benzo[4,5]imidazo[2,1-b]thiazol-3(2H)-one] | 234 ± 15.4 µM | 250 ± 9.8 µM | 10.7
3.8 ± 0.4 µM |  | 4.7 ± 0.4 µM |  | COc1cccc2c1C(=O)c1c(O)c3c(c(O)c1C2=O)C[C@@](O)(C(=O)CO)C[C@@H]3O[C@H]1C[C@H](N)[C@H](O)[C@H](C)O1 [Dox., Doxorubicin, reference compound] |  |  | 
17.1 ± 1.1 µM |  | 15.7 ± 0.9 µM |  | O=C1Nc2ccc(Br)cc2C1=C1SC(=Nc2ccccc2)N(c2ccccc2)C1=O [Compound 4d, 5-(5-Bromo-2-oxoindolin-3-ylidene)-3-phenyl-2-(phenylimino)thiazolidin-4-one] | 65.5 ± 4.2 µM | 80.7 ± 3.4 µM | 5.1
3.4 ± 0.3 µM |  | 5.5 ± 0.5 µM |  | CCN(CC)CCNC(=O)c1c(C)[nH]c(/C=C2\C(=O)Nc3ccc(F)cc32)c1C [Sunitinib, reference compound] |  |  | 
52.9 ± 5 µM |  | 42.6 ± 3.4 µM |  | COc1ccc2c(c1)C(=C1SC(=Nc3ccccc3)N(c3ccccc3)C1=O)C(=O)N2 [Compound 4e, 5-(5-Methoxy-2-oxoindolin-3-ylidene)-3-phenyl-2-(phenylimino)thiazolidin-4-one] | 193 ± 10.6 µM | 89.6 ± 5.1 µM | 2.1
127 ± 9.9 µM |  | 47.2 ± 3.8 µM | > 300 °C | O=C1Nc2ccc(Cl)cc2C1=c1sc2nc3ccccc3n2c1=O [Compound 7a, 2-(5-Chloro-2-oxoindolin-3-ylidene)benzo[4,5]imidazo[2,1-b]thiazol-3(2H)-one] | 353 ± 17.1 µM | 234 ± 9.6 µM | 5.0
29.2 ± 2.5 µM |  | 24.1 ± 2.1 µM |  | O=C1Nc2ccc(Cl)cc2C1=C1SC(=Nc2ccccc2)N(c2ccccc2)C1=O [Compound 4c, 5-(5-Chloro-2-oxoindolin-3-ylidene)-3-phenyl-2-(phenylimino)thiazolidin-4-one] | 87.2 ± 5.2 µM | 113 ± 5.9 µM | 4.7
 |  | 43.6 ± 3.1 µM | > 300 °C | Cc1cc(C)c2c(c1)C(=C1SC(=Nc3ccccc3)N(c3ccccc3)C1=O)C(=O)N2 [Compound 4g, 5-(5,7-Dimethyl-2-oxoindolin-3-ylidene)-3-phenyl-2-(phenylimino)thiazolidin-4-one] | 120 ± 7.8 µM | 142 ± 7.9 µM | 3.25
48.2 ± 2.7 µM |  | 40.3 ± 2.5 µM | > 300 °C | Cc1ccc2c(c1)C(=c1sc3nc4ccccc4n3c1=O)C(=O)N2 [Compound 7c, 2-(5-Methyl-2-oxoindolin-3-ylidene)benzo[4,5]imidazo[2,1-b]thiazol-3(2H)-one] | 192 ± 10.8 µM | 242 ± 11.5 µM | 6.0
23.7 ± 1.9 µM |  | 36.3 ± 2.9 µM | > 300 °C | Cc1ccc(N=C2SC(=C3C(=O)Nc4c(C)cc(C)cc43)C(=O)N2c2ccc(C)cc2)cc1 [Compound 4n, 5-(5,7-Dimethyl-2-oxoindolin-3-ylidene)-3-(p-tolyl)-2-(p-tolylimino)thiazolidin-4-one] | 218 ± 13.5 µM | 154 ± 5.2 µM | 4.2
